Experimental data taken from patent publication US20250388597A1, “BIFUNCTIONAL PHOTOCROSSLINKING PROBES FOR COVALENT CAPTURE OF PROTEIN-NUCLEIC ACID COMPLEXES IN CELLS” (UNIVERSITY OF SOUTHERN CALIFORNIA, priority 2022, published 2025).

Columns and labels:
Nkx2.5/DNA complex = biological target: T1, Nkx2.5/DNA complex (Homo sapiens, UniProt P52952); assay: BFPX crosslinking of Nkx2.5/DNA complexes, SDS PAGE; type: biochemical; settings: denaturing SDS PAGE; probes with UV
T1 construct: human Nkx2.5 DBD (the homeodomain); made in house
T1 sequence (P52952 138-197 limits assumed, one chain of several): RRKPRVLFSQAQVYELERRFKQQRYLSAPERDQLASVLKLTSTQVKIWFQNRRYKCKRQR
Procedure: FIG. 12H depicts BFPX crosslinking of Nkx2.5/DNA complexes. […] The various treatment combinations were list above the gel. The reactions were then analyzed by SDS PAGE under denaturing condition as described in FIG. 12D.

Hela cells = assay: Cell and nuclear permeability by click labelling with Alexa Fluor 647 picolyl azide, fluorescence imaging; type: cell-based; settings: for dependence of immobilized fluorescent signal on probe concentration: 10 μM vs 100 μM under UV illumination, FIG. 14B; for immobilization of Alexa Fluor 647 picolyl azide in cells (cell and nuclear permeability): probe 10 μM or 100 μM, 30 min, UV 365 nm 5 min
From the text: FIG. 11A-FIG. 11F depicts permeability and subcellular distribution of the BFPX probe SPB-AAD in Hela cell. Top panel (FIG. 11A-FIG. 11C): buffer control experiments without adding SPB-AAD, (FIG. 11A) bright field; (FIG. 11B) fluorescence imaging of Alexa Fluor; (FIG. 11C) DAPI stain of the nuclei; Bottom panel: treatment with […], (FIG. 11D) bright field; (FIG. 11E) fluorescence imaging of Alexa Fluor; (FIG. 11F) DAPI stain of the nuclei.
FIG. 14A depicts characterization and testing of BFPX crosslinking inside cells. Hela cells were incubated with SPB-AAD or SPB-PEG4-AAD (10 μM or 100 μM) in the dark for 30 min to allow the DNA binding and intercalation by the psoralen moiety of the BFPX probes. After washing off the excessive BFPX probe, illuminate UV 365 nm for 5 min. An Alexa Fluor 647 picolyl azide molecule (from Click-iT™ Plus Alexa Fluor™ 647 Picolyl Azide Toolkit) was used to react with the alkyne group on SPB-AAD or SPB-PEG4-AAD via click reaction. After the click chemistry labeling, the unreacted fluorescent molecules were removed by washing. The nuclei were analyzed using fluorescence imaging. When no BFPX probes were added (columns 1 and 2) or adding probes without UV treatment (columns 3 and 6), little or no fluorescence signal was retained in the cells.
We next tested the cell and nuclear permeability of the BFPX probes using azide-containing fluorescent molecules through click reaction with the terminal alkyne in SPB-AAD and SPB-PEG4-AAD. Briefly, Hela cells were incubated with SPB-AAD or SPB-PEG4-AAD (10 μM or 100 μM) in the dark for 30 min to allow the DNA binding and intercalation by the psoralen moiety of the BFPX probes. After washing off the excess BFPX probes followed by illumination of UV 365 nm for 5 min, Alexa Fluor 647 picolyl azide was coupled to the alkyne group on SPB-AAD or SPB-PEG4-AAD via click reaction. After the click chemistry labeling, the unreacted fluorescent molecules were removed by washing. The nuclei were then be analyzed using fluorescence imaging (FIG. 14A). When no BFPX probes were added (columns 1 and 2) or adding probes without UV treatment (columns 3 and 6), little or no fluorescence signal was retained in the cells.
We also analyzed (i) cell permeability and subcellular distribution of the BFPX probes. We validated the cell and nuclear permeability of the BFPX probes and monitored their sub-cellular distribution using azide-containing fluorescent label through click reaction with the alkyne group (as in SPB-AAD and SPB-PEG3-AAD). Briefly, Hela cells were incubated with SPB-AAD (25 μM) in the dark for 30 min to allow the DNA binding and intercalation by the psoralen moiety of the BFPX probe. […] The nuclei were then analyzed using fluorescence imaging (FIG. 11). […]

Structure (SMILES)	crosslinking of the Nkx2.5/DNA complex (Nkx2.5/DNA complex)	dependence of immobilized fluorescent signal on probe concentration (Hela cells)	immobilization of Alexa Fluor 647 picolyl azide in cells (cell and nuclear permeability) (Hela cells)
C#CCCC1(CCNC(=O)CCCOc2c3occc3cc3ccc(=O)oc23)N=N1 [SPB-AAD, N-(2-(3-(but-3-yn-1-yl)-3H-diazirin-3-yl)ethyl)-4-((7-oxo-7H-furo[3,2-g]chromen-9-yl)oxy)butanamide]	significant crosslinking of the Nkx2.5/DNA complex	dosage dependent	could be immobilized in the cells via click reaction
C#CCCC1(CCNC(=O)CCOCCOCCOCCOCCNC(=O)CCCOc2c3occc3cc3ccc(=O)oc23)N=N1 [SPB-PEG4-AAD, N-(2-(3-(but-3-yn-1-yl)-3H-diazirin-3-yl)ethyl)-1-(4-((7-oxo-7H-furo[3,2-g]chromen-9-yl)oxy)butanamido)-3,6,9,12-tetraoxapentadecan-15-amide]	significant crosslinking of the Nkx2.5/DNA complex	dosage dependent	could be immobilized in the cells via click reaction
